# Source: US11370774B2, “Substituted benzofuran, benzopyrrole, benzothiophene, and structurally related complement inhibitors” (BioCryst Pharmaceuticals, Inc., priority 2018, dated 2022)
# Biological target: Factor D (Homo sapiens (Human), UniProt P00746)
# Experiment: Factor D esterolytic assay (Z-Lys-SBzl substrate, DTNB, 405 nm)
# Format: biochemical
# Conditions: Z-Lys-SBzl 1.29 mM, pH 7.5, 10% DMSO, tested a minimum of three times, read-out: Measured Ki (IC50) Value for Compounds: IC50
# Description: The IC50 value of a compound (i.e., the concentration of the compound that inhibits 50% of the enzymatic activity) was calculated according to the procedure reported in U.S. Pat. No. 6,653,340 B1, e.g., column 74 (incorporated by reference).
# Specifically, the compounds were dissolved in a stock solution of DMSO at 10.0 or 100 mM. A portion of this stock solution was added to assay buffer in a final volume of 50 μL. Controls included buffer alone and enzyme solutions to which DMSO was added. Substrate was added to the reaction wells immediately or after incubation at room temperature. The reaction rates were measured spectrophotometrically by the generation of product at 405 nm for 600 sec. Background absorbance at 690 nm was measured and subtracted from the absorbance at 405 nm for each well.
# The reaction rate for enzyme alone was compared to the rate of enzyme in the presence of inhibitor and the percent inhibition was calculated as shown below: Percent Inhibition=[Rate without inhibitor−Rate with inhibitor)/(Rate without inhibitor)]×100 Factor D Esterolytic Assay:
# An established esterolytic assay for the measurement of Factor D activity and inhibition of Factor D activity was used (Kam, C. M.; McRae, B. J.; Harper, J. W.; Niemann, M. A.; Volanakis, J. E.; Powers, J. C. Human complement proteins D, C2, and B Active site mapping with peptide thioester substrates. J Biol. Chem. 1987, 262, 3444-3451). For this assay Z-Lys-SBzl, 1.29 mM (Kim, S.; Narayana, S. V. L; Volanakis, J. E. Mutational analysis of the substrate binding site of human complement Factor D. Biochemistry. 1994, 33, 14393-14399.) was used as the substrate for Factor D ([…]). Hydrolysis of this compound by Factor D liberated a free sulfhydryl group which is then reacted with 5,5′-dithiobis(2nitrobenzoic acid) producing an intense yellow color (Habeeb, A. F. S. A. Reaction of protein sulfhydryl groups with Ellman's Reagent. Methods in Enzymol. 1976, 25, 457-464). The assays were performed in 96 well microtiter plates and rates of hydrolysis were monitored at 405 nm on a Biotek Synergy H1 plate reader. Hydrolysis rates were reported as change in mOD/min. The assay was conducted in 100 mM HEPES, 500 mM NaCl, pH 7.5 containing 10% DMSO in a final volume of 50 μL per well.
# An IC50, a compound concentration which inhibits 50% of the enzymatic activity, was calculated. Compounds in the examples were tested a minimum of three times.
# Factor D, sequence (P00746 26-253): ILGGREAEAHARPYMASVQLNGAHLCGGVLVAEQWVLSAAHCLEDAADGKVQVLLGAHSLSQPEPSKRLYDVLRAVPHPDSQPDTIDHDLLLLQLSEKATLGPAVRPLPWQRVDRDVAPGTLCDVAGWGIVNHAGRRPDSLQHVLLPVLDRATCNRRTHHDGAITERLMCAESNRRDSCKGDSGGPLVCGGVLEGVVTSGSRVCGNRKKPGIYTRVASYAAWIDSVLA
row,Structure (SMILES),IC50
1,"Cc1ccc(CC(=O)O)c(OCc2cc(-c3ccnc(CN)c3)c3occc3c2)c1 [Compound 271e, 2-(2-((7-(2-(aminomethyl)pyridin-4-yl)benzofuran-5-yl)methoxy)-4-methylphenyl)acetic acid]",< 1000 nM
2,"CCOC(=O)Cc1ccccc1OCc1nc(-c2cccc(CN)c2)nn2cccc12 [Compound 25c, ethyl 2-(2-((2-(3-(aminomethyl)phenyl)pyrrolo[2,1-f][1,2,4]triazin-4-yl)methoxy)phenyl)acetate]",1000 to 10000 nM
3,"NCc1cccc(-c2cc(COc3cc(-c4ccc(C(=O)O)s4)ccc3CC(=O)O)cc3ccoc23)c1 [Compound 325a, 5-(3-((7-(3-(aminomethyl)phenyl)benzofuran-5-yl)methoxy)-4-(carboxymethyl)phenyl)thiophene-2-carboxylic acid]",< 1000 nM
4,"NCc1cccc(-c2cc(C(=O)Nc3ccccc3CC(=O)O)c3nccn3c2)c1 [Compound 6e, 2-(2-(6-(3-(aminomethyl)phenyl)imidazo[1,2-a]pyridine-8-carboxamido)phenyl)acetic acid]",1000 to 10000 nM
5,"NCc1cccc(-c2cc(CCN3CCC[C@H]3C(=O)NCc3cccc(Cl)c3F)cc3ccoc23)c1 [Compound 369d, (S)-1-(2-(7-(3-(aminomethyl)phenyl)benzofuran-5-yl)ethyl)-N-(3-chloro-2-fluorobenzyl)pyrrolidine-2-carboxamide]",< 1000 nM
6,"COCc1cc2cc(COc3cc(C)ccc3CC(=O)O)cc(-c3ccnc(CN)c3)c2o1 [Compound 454d, 2-(2-((7-(2-(aminomethyl)pyridin-4-yl)-2-(methoxymethyl)benzofuran-5-yl)methoxy)-4-methylphenyl)acetic acid]",< 1000 nM
7,"NCc1cccc(-c2cc(COc3ccccc3CC(=O)O)cc3nn(CC4CC4)cc23)c1F [Compound 164e, 2-(2-((4-(3-(aminomethyl)-2-fluorophenyl)-2-(cyclopropylmethyl)-2H-indazol-6-yl)methoxy)phenyl)acetic acid]",< 1000 nM
8,"NCc1cccc(-c2cc(COc3ccccc3CC(=O)O)cc3c2ccn3CC2CC2)c1 [Compound 148e, 2-(2-((4-(3-(aminomethyl)phenyl)-1-(cyclopropylmethyl)-1H-indol-6-yl)methoxy)phenyl)acetic acid]",< 1000 nM
9,"CS(=O)(=O)n1ccc2c(-c3cccc(CN)c3)cc(COc3ccccc3CC(=O)O)cc21 [Compound 192e, 2-(2-((4-(3-(aminomethyl)phenyl)-1-(methylsulfonyl)-1H-indol-6-yl)methoxy)phenyl)acetic acid]",< 1000 nM
10,"Cc1ccc(CC(=O)O)c(OCc2cc(-c3cccc(CN)c3F)c3ccn(C(C)C)c3c2)c1 [Compound 353b, 2-(2-((4-(3-(aminomethyl)-2-fluorophenyl)-1-isopropyl-1H-indol-6-yl)methoxy)-4-methylphenyl)acetic acid]",< 1000 nM
11,"NCc1cccc(-c2cc(CNc3ccccc3CC(=O)O)cc3ccoc23)c1F [Compound 152d, lithium 2-(2-(((7-(3-(aminomethyl)-2-fluorophenyl)benzofuran-5-yl)methyl)amino)phenyl)acetate]",< 1000 nM
12,"NCc1cccc(-c2cc(COc3cc(CN)ccc3CC(=O)O)cc3ccoc23)c1 [Compound 236d, 2-(4-(aminomethyl)-2-((7-(3-(aminomethyl)phenyl)benzofuran-5-yl)methoxy)phenyl)acetic acid]",< 1000 nM
13,"NCc1cccc(-c2cc(COc3cc(F)ccc3CC(=O)O)cc3c(C(F)(F)F)coc23)c1F [Compound 487b, 2-(2-((7-(3-(aminomethyl)-2-fluorophenyl)-3-(trifluoromethyl)benzofuran-5-yl)methoxy)-4-fluorophenyl)acetic acid]",< 1000 nM
14,"NCc1cccc(-c2nc(COc3ccccc3CC(=O)O)nc3c2ccn3CC2CC2)c1 [Compound 26d, 2-(2-((4-(3-(aminomethyl)phenyl)-7-(cyclopropylmethyl)-7H-pyrrolo[2,3-d]pyrimidin-2-yl)methoxy)phenyl)acetic acid]",< 1000 nM
15,"NCc1cccc(-c2cc(COc3ccccc3CC(=O)O)cc3sccc23)c1F [Compound 117b, 2-(2-((4-(3-(aminomethyl)-2-fluorophenyl)benzo[b]thiophen-6-yl)methoxy)phenyl)acetic acid]",< 1000 nM
16,"NCc1cccc(-c2cc(COc3c(CC(=O)O)ccc4ccccc34)cc3ccoc23)c1 [Compound 399d, 2-(1-((7-(3-(aminomethyl)phenyl)benzofuran-5-yl)methoxy)naphthalen-2-yl)acetic acid]",< 1000 nM
17,"NCc1cccc(-c2cc(COc3cc(-c4ccccc4)ccc3CC(=O)O)cc3ccoc23)c1F [Compound 391f, 2-(3-((7-(3-(aminomethyl)-2-fluorophenyl)benzofuran-5-yl)methoxy)-[1,1′-biphenyl]-4-yl)acetic acid]",< 1000 nM
18,"Cc1cc2cc(COc3ccccc3CC(=O)O)cc(-c3cccc(CN)c3F)c2o1 [Compound 92b, 2-(2-((7-(3-(aminomethyl)-2-fluorophenyl)-2-methylbenzofuran-5-yl)methoxy)phenyl)acetic acid]",< 1000 nM
19,"NCc1cccc(-c2cc(COc3ccccc3CC(=O)O)cc3c2CCC3)c1 [Compound 177f, 2-(2-((7-(3-(aminomethyl)phenyl)-2,3-dihydro-1H-inden-5-yl)methoxy)phenyl)acetic acid]",< 1000 nM
20,"NCc1nccc(-c2cc(COc3ccccc3CC(=O)O)cc3occc23)c1F [Compound 174c, 2-(2-((4-(2-(aminomethyl)-3-fluoropyridin-4-yl)benzofuran-6-yl)methoxy)phenyl)acetic acid]",< 1000 nM
21,"Cc1ccc(S(=O)(=O)n2ccc3c(-c4cccc(CN)c4)cc(COc4ccccc4CC(=O)O)cc32)cc1 [Compound 40e, 2-(2-((4-(3-(aminomethyl)phenyl)-1-tosyl-1H-indol-6-yl)methoxy)phenyl)acetic acid]",< 1000 nM
22,"Cc1ccc(CC(=O)O)c(OCc2cc(-c3ccnc(CN)c3)c3ccn(C)c3c2)c1 [Compound 367c, 2-(2-((4-(2-(aminomethyl)pyridin-4-yl)-1-methyl-1H-indol-6-yl)methoxy)-4-methylphenyl)acetic acid]",< 1000 nM
23,"CC(=O)c1ccc(CC(=O)O)c(OCc2cc(-c3cccc(CN)c3)c3occc3c2)c1 [Compound 262c, 2-(4-acetyl-2-((7-(3-(aminomethyl)phenyl)benzofuran-5-yl)methoxy)phenyl)acetic acid]",< 1000 nM
24,"NCc1cccc(-c2cc(COc3ccc(N)cc3CC(=O)O)cc3ccoc23)c1 [Compound 209c, 2-(5-amino-2-((7-(3-(aminomethyl)phenyl)benzofuran-5-yl)methoxy)phenyl)acetic acid]",< 1000 nM
25,"Cc1cc2c(-c3cccc(CN)c3F)cc(COc3ccccc3CC(=O)O)cc2o1 [Compound 409f, 2-(2-((4-(3-(aminomethyl)-2-fluorophenyl)-2-methylbenzofuran-6-yl)methoxy)phenyl)acetic acid]",< 1000 nM
26,"NCc1cc(F)cc(-c2cc(COc3ccccc3CC(=O)O)cc3ccoc23)c1 [Compound 73c, 2-(2-((7-(3-(aminomethyl)-5-fluorophenyl)benzofuran-5-yl)methoxy)phenyl)acetic acid]",< 1000 nM
27,"CC(C)n1ccc2c(-c3cccc(CN)c3F)cc(COc3ccc(F)cc3CC(=O)O)cc21 [Compound 494b, 2-(2-((4-(3-(aminomethyl)-2-fluorophenyl)-1-isopropyl-1H-indol-6-yl)methoxy)-5-fluorophenyl)acetic acid]",< 1000 nM
